Measurements as given in ChEMBL document CHEMBL4304837, “Discovery of Pyridazinone and Pyrazolo[1,5-a]pyridine Inhibitors of C-Terminal Src Kinase” (ACS Med Chem Lett, 2019).

Legend:
[1] = Metabolic stability in mouse liver microsomes assessed as compound remaining at 0.5 uM measured after 10 mins in presence of NADPH by LC-MS/MS analysis; assay type: ADME, Microsome; conditions: read-out: Stability
[2] = Protein binding in mouse serum assessed as unbound fraction measured up to 5 hrs by LC-MS/MS analysis relative to control; assay type: ADME, cell-free
[3] = Metabolic stability in human liver microsomes assessed as compound remaining at 0.5 uM measured after 10 mins in presence of NADPH by LC-MS/MS analysis; assay type: ADME, Microsome; conditions: read-out: Stability
[4] = Protein binding in human serum assessed as unbound fraction measured up to 5 hrs by LC-MS/MS analysis relative to control; assay type: ADME, cell-free
[5] = Half life in mouse liver microsomes at 0.5 uM measured up to 45 mins by LC-MS/MS analysis; assay type: ADME, Microsome
[6] = biological target: T1, Tyrosine-protein kinase ZAP-70 (Homo sapiens) (UniProt P43403); test: Effect on ZAP70 phosphorylation in human Jurkat cells pre-incubated for 30 mins followed by anti-CD3/CD28 stimulation measured after 10 mins relative to control; assay type: cell-based
T1 sequence (whole entry): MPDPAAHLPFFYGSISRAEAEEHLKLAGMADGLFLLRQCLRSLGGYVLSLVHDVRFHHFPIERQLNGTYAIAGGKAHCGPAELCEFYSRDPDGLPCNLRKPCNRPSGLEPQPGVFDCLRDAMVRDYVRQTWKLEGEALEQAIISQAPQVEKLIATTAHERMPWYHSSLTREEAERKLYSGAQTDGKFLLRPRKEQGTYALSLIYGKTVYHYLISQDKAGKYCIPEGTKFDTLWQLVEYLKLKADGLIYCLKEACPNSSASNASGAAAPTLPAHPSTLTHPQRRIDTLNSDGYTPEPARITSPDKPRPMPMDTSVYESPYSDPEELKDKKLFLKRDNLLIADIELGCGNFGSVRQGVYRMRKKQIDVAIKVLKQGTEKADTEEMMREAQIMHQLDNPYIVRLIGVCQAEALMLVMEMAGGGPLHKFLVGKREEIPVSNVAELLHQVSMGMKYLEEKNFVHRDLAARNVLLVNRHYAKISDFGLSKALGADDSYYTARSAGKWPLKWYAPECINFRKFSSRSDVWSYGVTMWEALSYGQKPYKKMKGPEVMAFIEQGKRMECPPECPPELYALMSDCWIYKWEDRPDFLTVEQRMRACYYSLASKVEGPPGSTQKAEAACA

[7] = Half life in human liver microsomes at 0.5 uM measured up to 45 mins by LC-MS/MS analysis; assay type: ADME, Microsome
[8] = Drug metabolism in mouse liver microsomes assessed as oxidation at indazole ring by soft spot analysis; assay type: ADME, Microsome
[9] = biological target: Tyrosine-protein kinase Lck (Homo sapiens, UniProt P06239); test: Inhibition of His-tagged/GST-tagged LCK (unknown origin) incubated for 1 hr by TR-FRET assay
[10] = Drug metabolism in mouse liver microsomes assessed as oxidation at […] group by soft spot analysis; assay type: ADME, Microsome
[11] = Half life in C57BL/6 mouse at 100 mg/kg, po; assay type: ADME, organism-based; conditions: in vivo
[12] = Drug concentration in C57BL/6 mouse at 100 mg/kg, po after 24 hrs; assay type: ADME, organism-based; conditions: in vivo, read-out: Ct
[13] = AUC in C57BL/6 mouse at 100 mg/kg, po; assay type: ADME, organism-based; conditions: in vivo
[14] = Cmax in C57BL/6 mouse at 100 mg/kg, po; assay type: ADME, organism-based; design: dose 100 mg/kg, route oral; conditions: in vivo
[15] = Tmax in C57BL/6 mouse at 100 mg/kg, po; assay type: ADME, organism-based; conditions: in vivo
[16] = Plasma concentration in C57BL/6 mouse at 100 mg/kg, po; assay type: ADME, organism-based; conditions: in vivo
Homo sapiens [17] = organism: Homo sapiens; test: Immunostimulatory activity in human CD4-positive T cells assessed as increase in OKT-induced IL-2 secretion pre incubated for 15 mins followed by co-culture with CHO cells over-expressing OKT and measured after 48 hrs by AlphaLisa assay; assay type: functional, cell-based
[18] = Effect on human CD4-positive T cell activation assessed as increase in IL-2 secretion preincubated for 15 mins followed by co-culture with CHO cells and measured after 48 hrs by AlphaLisa assay
[19] = Effect on human CD4-positive T cell activation assessed as increase in increase in CD4-positive T cells proliferation preincubated for 15 mins followed by co-culture with CHO cells and measured after 48 hrs by AlphaLisa assay; assay type: cell-based
Homo sapiens [20] = organism: Homo sapiens; test: Immunostimulatory activity in human CD4-positive T cells assessed as increase in OKT-induced increase in CD4-positive T cells proliferation pre incubated for 15 mins followed by co-culture with CHO cells over-expressing OKT and measured after 72 hrs by MTS assay; assay type: functional, cell-based

Chain of Tyrosine-protein kinase Lck (P06239 whole entry): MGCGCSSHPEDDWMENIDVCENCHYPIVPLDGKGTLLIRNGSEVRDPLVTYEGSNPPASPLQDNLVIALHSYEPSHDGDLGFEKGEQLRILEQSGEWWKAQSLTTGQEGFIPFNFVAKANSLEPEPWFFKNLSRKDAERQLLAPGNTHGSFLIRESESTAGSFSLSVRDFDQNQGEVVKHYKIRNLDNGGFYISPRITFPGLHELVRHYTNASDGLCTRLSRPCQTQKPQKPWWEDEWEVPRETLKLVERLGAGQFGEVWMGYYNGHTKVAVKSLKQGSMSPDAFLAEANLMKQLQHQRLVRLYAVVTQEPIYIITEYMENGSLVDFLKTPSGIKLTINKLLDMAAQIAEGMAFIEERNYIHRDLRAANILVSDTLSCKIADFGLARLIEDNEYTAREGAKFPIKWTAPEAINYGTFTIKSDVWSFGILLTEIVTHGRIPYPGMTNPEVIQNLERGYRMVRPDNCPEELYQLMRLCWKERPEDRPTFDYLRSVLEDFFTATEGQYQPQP

| SMILES | remaining at 10 min, 0.5 µM [1] | remaining at 10 min, 0.5 µM [3] | Emax [6] | other results |
| --- | --- | --- | --- | --- |
| COc1ccc2c(C(=O)Nc3ccc(NC(=O)c4nn(C)c5ccccc45)cc3C)cnn2c1 | 59% | – | – | – |
| COc1ccc2c(C(=O)Nc3ccc(NC(=O)c4nn(C5CCN(C(=O)NC(C)(C)C)CC5)c5ccc(F)cc45)cc3Cl)cnn2c1 | 99% | 85% | 210% | Fu [2]: < 0.2%; Fu [4]: 0.4%; half-life at 0.5 µM [5]: 1.47 h; half-life at 0.5 µM [7]: > 2 h |
| CC(C)(C)NC(=O)N1CC(Cn2nc(C(=O)Nc3ccc(-c4ccc(=O)[nH]n4)c(Cl)c3)c3ccccc32)C1 | 33% | 2% | 73% | IC50 [9]: > 50 µM |
| Cc1cc(NC(=O)c2nn(C3CCN(C(=O)CC(C)(C)C#N)CC3)c3ccccc23)ccc1NC(=O)c1cnn2ccccc12 | 9% | 85% | 370% | Drug metabolism [10]: Metabolite_Detected |
| CC(C)(C)NC(=O)N1CCC(n2nc(C(=O)Nc3ccc(NC(=O)c4cnn5ccccc45)cc3)c3ccccc32)CC1 | 21% | 71% | 240% | – |
| COc1ccc2c(C(=O)Nc3ccc(NC(=O)c4nn(C5CCN(C(=O)NC(C)(C)C)CC5)c5ccccc45)cc3C)cnn2c1 | 2% | 80% | 220% | – |
| COc1ccc2c(C(=O)Nc3ccc(NC(=O)c4nn(C5CCN(C(=O)CC(C)(C)C#N)CC5)c5ccc(F)cc45)cc3Cl)cnn2c1 | 100% | 91% | 360% | Activity (Homo sapiens [17]): Dose-dependent effect; Fu [2]: 0.3%; half-life [11]: 5.3 h; concentration at 24 h [12]: 1.3 µM; Fu [4]: < 0.1%; half-life at 0.5 µM [5]: > 2 h; Activity [18]: Non-Toxic; Activity [19]: Non-Toxic; AUC [13]: 222 µM·h; Cmax [14]: 19.3 µM; Tmax [15]: 7 h; half-life at 0.5 µM [7]: > 2 h; Activity (Homo sapiens [20]): Dose-dependent effect |

The next lines start with results.

| remaining at 10 min, 0.5 µM [1] | remaining at 10 min, 0.5 µM [3] | Emax [6] | SMILES | other results |
| --- | --- | --- | --- | --- |
| 10% | 72% | 190% | Cc1cc(NC(=O)c2nn(C3CCN(C(=O)NC(C)(C)C)CC3)c3ccccc23)ccc1NC(=O)c1cnn2ccccc12 | Drug metabolism [8]: Metabolite_Detected |
| 1% | 72% | 280% | CCc1cc(NC(=O)c2nn(C3CCN(C(=O)NC(C)(C)C)CC3)c3ccccc23)ccc1-c1cc(C)c(=O)[nH]n1 | – |
| 15% | 65% | 180% | CC(C)(C)NC(=O)N1CCC(n2nc(C(=O)Nc3ccc(-c4ccc(=O)[nH]n4)c(Cl)c3)c3ccccc32)CC1 | – |
| 9% | 68% | 350% | Cc1cc(=O)[nH]nc1-c1ccc(NC(=O)c2nn(C3CCN(C(=O)NC(C)(C)C)CC3)c3ccccc23)cc1Cl | – |
| 24% | 84% | 250% | CC(C)(C)NC(=O)N1CCC(n2nc(C(=O)Nc3ccc(NC(=O)c4cnn5ccccc45)c(Cl)c3)c3ccccc32)CC1 | – |
| 78% | 53% | 350% | CCc1cc(NC(=O)c2nn(C3CCN(C(=O)NC(C)(C)C)CC3)c3ccccc23)ccc1-c1n[nH]c(=O)cc1C | Fu [2]: 0.9%; half-life [11]: 1.9 h; concentration at 24 h [12]: 0.001 µM; Fu [4]: 0.4%; half-life at 0.5 µM [5]: 0.517 h; AUC [13]: 51.5 µM·h; Cmax [14]: 17.3 µM; Tmax [15]: 0.3 h; half-life at 0.5 µM [7]: 0.167 h; concentration [16]: 8.7 µM |
| 59% | 61% | 270% | CCc1cc(NC(=O)c2nn(C3CCN(C(=O)NC(C)(C)C)CC3)c3ccccc23)ccc1-c1n[nH]c(=O)c(C)c1C | Fu [2]: 1%; Fu [4]: 0.5%; half-life at 0.5 µM [5]: 0.2 h; half-life at 0.5 µM [7]: 0.233 h |
